ChEMBL document CHEMBL1201862, “PubChem BioAssay data set” (2004)
The source made the active and inactive calls.

Columns and labels:
[1] = target: G-protein coupled receptor 55 (Homo sapiens, UniProt Q9Y2T6); test: GPR55 agonists via beta-arrestin recruitment, primary screen, imaging, U2OS cells, beta-arrestin-GFP redistribution (AID 1961); assay type: functional
Protein RecA = target: T1, Protein RecA (Mycobacterium tuberculosis, UniProt P9WHJ3); test: Fluorescence Cell-Free Homogeneous Dose Retest to Identify Inhibitors of RecA-Intein Splicing Activity. [Related pubchem assays (depositor defined):AID2097, AID2223, AID489010, AID492950]; assay type: functional
T1 sequence (P9WHJ3 whole entry): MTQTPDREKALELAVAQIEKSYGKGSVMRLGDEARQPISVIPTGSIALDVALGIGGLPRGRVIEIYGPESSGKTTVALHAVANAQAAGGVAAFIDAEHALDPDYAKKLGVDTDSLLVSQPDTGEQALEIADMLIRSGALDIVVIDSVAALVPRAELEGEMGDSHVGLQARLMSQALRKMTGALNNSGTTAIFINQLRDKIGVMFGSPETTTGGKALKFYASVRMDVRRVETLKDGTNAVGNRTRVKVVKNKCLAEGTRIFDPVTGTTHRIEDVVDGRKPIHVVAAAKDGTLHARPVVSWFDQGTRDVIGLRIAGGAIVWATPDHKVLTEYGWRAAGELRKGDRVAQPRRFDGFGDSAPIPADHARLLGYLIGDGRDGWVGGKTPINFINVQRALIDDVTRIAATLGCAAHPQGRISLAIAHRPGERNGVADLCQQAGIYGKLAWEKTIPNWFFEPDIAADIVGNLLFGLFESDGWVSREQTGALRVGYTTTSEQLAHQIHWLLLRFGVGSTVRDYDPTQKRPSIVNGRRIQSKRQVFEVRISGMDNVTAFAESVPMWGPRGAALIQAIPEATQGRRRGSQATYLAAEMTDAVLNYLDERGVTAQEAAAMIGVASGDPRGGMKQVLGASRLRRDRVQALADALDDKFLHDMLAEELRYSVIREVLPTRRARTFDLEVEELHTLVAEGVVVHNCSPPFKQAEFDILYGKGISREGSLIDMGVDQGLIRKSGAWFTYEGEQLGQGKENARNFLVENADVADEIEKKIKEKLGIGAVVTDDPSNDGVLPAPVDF

[2] = target: T2, Replicative DNA helicase DnaB (Mycobacterium tuberculosis, UniProt P9WMR3); test: DnaB intein splicing inhibitors, dose response, biochemical, cell-free fluorescence (AID 449749); assay type: functional
T2 sequence (P9WMR3 whole entry): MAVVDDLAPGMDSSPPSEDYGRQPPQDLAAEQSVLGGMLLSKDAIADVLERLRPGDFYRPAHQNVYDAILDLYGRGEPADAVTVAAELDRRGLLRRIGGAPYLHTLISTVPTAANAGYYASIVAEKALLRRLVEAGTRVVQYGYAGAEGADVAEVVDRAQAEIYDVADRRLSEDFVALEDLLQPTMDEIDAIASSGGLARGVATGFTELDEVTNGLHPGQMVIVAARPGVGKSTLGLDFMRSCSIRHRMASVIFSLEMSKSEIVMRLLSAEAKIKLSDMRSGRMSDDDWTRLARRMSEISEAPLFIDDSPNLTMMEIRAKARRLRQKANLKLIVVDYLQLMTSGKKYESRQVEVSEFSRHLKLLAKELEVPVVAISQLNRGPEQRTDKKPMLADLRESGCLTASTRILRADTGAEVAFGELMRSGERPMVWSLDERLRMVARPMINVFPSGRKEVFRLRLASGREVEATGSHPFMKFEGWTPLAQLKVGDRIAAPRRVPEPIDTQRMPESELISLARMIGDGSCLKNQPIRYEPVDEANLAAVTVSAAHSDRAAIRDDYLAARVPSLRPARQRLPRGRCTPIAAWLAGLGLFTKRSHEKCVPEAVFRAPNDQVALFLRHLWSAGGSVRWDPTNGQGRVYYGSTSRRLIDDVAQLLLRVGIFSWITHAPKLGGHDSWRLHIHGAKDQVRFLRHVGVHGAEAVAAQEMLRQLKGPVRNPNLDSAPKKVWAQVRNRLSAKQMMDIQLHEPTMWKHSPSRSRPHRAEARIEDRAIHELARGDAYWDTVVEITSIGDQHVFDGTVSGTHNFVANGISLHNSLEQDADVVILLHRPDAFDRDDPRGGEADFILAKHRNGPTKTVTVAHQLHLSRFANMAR

[3] = target: Voltage-dependent T-type calcium channel subunit alpha-1H (Homo sapiens, UniProt O95180); assay type: functional;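 note: channel activity triggered by adding a high calcium stimulation buffer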
X-box-binding protein 1 = X-box-binding protein 1 (Homo sapiens, UniProt P17861); assay type: functional, Cricetulus griseus;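 note: confirmatory dose-response counter-screen serving a CHOP assay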
Sequence of X-box-binding protein 1 (P17861 whole entry): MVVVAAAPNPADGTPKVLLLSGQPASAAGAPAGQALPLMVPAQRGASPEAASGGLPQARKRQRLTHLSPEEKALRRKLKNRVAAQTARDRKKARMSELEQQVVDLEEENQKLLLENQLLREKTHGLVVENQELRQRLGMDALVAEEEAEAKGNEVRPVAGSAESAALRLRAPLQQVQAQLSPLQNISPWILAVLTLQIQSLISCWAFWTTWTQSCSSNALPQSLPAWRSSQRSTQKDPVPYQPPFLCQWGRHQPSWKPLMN

[4] = growth suppression of PTEN-null colon cells, dose response, cell-based, HCT116 PTEN knockout (AID 1047); assay type: functional;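 note: HCT116 colon tumor cells with PTEN knocked out; cells exposed to compound for 60 hours before readout; potency for loss of cell viability measured by luminescence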
[5] = growth suppression of beta-catenin-knockout colon cells, dose response, cell-based, HCT116, human colon tumor (AID 1045); assay type: functional;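 note: HCT116 colon tumor cells with beta catenin knocked out; cells exposed to compound for 60 hours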
Trypsin = Trypsin (Sus scrofa, UniProt P00761); test: porcine trypsin inhibitors, dose response, selectivity assay for Rce1 protease inhibitor project, biochemical, quenched peptide fluorescence, cherry-pick (AID 488789)
Sequence of Trypsin (P00761 whole entry): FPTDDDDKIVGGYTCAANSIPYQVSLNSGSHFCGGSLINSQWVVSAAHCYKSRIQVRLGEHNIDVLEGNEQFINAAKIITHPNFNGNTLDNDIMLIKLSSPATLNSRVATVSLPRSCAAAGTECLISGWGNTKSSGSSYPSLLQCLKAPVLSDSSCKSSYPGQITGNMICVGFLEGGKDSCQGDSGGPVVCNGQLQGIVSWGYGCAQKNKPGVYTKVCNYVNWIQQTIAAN

Vero [6] = test: cells; assay type: functional, cell-based; details: Chlorocebus sabaeus
Vero [7] = test: cells; assay type: functional; details: Chlorocebus sabaeus
[8] = target: Melanin-concentrating hormone receptor 1 (Homo sapiens, UniProt Q99705); test: Late-stage fluorescence-based counterscreen for antagonists of the G-protein coupled receptor 7 (GPR7): cell-based dose response assay to identify antagonists of the melanin-concentrating hormone receptor 1 (MCHR1). [Related pubchem assays (depositor defined):AID1861, AID1880, AID1952, AID2148, AID2251, AID2257, AID485339]; assay type: functional;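 note: stimulated with 30 nM MCH peptide agonist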
[9] = target: T3, Neuropeptides B/W receptor type 1 (Homo sapiens, UniProt P48145); test: GPR7 antagonist potency, late-stage follow-up, cell-based, fluorescence, dose response (AID 463251); assay type: functional
T3 sequence (P48145 whole entry): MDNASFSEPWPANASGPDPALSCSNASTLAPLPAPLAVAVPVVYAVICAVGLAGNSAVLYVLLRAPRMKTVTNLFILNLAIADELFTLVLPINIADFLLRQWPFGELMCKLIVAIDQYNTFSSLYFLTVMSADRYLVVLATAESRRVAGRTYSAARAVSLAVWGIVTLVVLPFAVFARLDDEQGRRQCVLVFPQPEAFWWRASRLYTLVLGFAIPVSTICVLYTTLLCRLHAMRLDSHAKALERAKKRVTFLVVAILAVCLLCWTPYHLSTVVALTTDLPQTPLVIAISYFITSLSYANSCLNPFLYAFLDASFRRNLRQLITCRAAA

[10] = target: Acylamino-acid-releasing enzyme (Homo sapiens, UniProt P13798); test: PME-1 inhibitor potency by in-gel ABPP, dose response, selectivity assay for PME-1 inhibitor project, cell lysate, mouse brain cytosol, FP-rhodamine, panel member APEH Assay Panel member description: Inhibition of N-acylaminoacyl-peptide hydrolase (APEH) (anti-target) (AID 2366)
[11] = target: T4, Voltage-gated N-type calcium channel alpha-1B subunit/Amyloid beta A4 precursor protein-binding family A member 1 (Homo sapiens, UniProt Q00975+Q02410); test: disruptors of Mint-PDZ/N-type channel peptide interaction – biochemical, HTRF, SAR follow-up (AID 2489); assay type: functional
T4 sequence (Q00975 whole entry): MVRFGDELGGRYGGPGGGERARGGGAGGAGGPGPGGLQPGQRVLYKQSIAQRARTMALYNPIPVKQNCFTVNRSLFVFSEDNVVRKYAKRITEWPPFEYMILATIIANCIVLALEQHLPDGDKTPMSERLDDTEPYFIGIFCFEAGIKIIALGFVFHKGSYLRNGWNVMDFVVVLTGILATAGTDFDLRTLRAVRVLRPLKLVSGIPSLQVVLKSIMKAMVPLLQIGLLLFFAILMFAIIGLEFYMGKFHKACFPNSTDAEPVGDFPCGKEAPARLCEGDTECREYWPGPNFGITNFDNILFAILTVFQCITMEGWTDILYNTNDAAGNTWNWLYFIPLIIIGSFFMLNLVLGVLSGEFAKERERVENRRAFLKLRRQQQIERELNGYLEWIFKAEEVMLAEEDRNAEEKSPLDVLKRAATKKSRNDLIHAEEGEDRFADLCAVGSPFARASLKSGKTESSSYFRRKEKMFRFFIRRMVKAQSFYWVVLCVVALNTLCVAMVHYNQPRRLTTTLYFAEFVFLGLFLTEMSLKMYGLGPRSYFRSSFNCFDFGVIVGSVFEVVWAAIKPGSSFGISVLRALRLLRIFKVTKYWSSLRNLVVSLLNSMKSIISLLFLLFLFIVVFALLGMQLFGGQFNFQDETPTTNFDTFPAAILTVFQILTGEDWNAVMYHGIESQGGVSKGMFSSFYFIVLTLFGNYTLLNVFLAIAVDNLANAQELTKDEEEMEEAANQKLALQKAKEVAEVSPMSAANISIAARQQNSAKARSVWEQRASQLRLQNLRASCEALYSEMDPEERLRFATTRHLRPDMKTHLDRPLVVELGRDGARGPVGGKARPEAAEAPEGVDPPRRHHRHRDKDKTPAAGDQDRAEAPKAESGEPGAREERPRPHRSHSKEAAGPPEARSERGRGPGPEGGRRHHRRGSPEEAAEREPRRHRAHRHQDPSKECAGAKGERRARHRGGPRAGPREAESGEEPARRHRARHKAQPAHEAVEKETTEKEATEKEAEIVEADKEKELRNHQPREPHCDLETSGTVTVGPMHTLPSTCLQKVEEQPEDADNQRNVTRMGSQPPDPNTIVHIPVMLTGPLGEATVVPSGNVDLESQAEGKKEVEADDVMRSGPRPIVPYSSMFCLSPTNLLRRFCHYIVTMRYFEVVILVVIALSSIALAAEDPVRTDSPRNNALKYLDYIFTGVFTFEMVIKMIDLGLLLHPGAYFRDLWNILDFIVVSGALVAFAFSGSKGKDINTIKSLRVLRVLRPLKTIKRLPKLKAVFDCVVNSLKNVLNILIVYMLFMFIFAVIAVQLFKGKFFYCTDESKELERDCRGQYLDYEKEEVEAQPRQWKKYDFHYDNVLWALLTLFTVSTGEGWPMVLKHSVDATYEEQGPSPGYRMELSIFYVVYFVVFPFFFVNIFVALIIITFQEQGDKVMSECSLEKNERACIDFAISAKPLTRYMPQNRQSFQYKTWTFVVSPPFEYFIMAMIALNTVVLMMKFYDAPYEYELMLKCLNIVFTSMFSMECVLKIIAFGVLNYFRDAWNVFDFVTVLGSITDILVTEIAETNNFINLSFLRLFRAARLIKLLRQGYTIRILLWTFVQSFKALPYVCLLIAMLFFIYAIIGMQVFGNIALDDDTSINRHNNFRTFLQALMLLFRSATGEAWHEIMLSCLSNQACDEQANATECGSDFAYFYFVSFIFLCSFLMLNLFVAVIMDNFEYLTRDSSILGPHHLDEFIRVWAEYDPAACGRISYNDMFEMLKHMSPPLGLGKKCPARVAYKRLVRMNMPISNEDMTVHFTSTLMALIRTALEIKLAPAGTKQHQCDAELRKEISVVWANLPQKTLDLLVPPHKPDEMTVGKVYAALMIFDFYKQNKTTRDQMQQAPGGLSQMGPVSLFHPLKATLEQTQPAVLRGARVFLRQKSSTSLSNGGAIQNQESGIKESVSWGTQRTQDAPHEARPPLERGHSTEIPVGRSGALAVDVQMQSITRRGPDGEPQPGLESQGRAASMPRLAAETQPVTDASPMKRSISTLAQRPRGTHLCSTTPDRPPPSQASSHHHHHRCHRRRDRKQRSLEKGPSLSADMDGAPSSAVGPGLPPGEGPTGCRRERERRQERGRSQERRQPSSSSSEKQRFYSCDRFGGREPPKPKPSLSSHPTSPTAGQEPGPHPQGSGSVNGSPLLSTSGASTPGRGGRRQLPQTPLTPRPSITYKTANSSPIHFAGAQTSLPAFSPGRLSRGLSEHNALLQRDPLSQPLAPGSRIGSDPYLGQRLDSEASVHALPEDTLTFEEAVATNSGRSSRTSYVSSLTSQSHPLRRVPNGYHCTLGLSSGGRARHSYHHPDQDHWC
T4 sequence (Q02410 whole entry): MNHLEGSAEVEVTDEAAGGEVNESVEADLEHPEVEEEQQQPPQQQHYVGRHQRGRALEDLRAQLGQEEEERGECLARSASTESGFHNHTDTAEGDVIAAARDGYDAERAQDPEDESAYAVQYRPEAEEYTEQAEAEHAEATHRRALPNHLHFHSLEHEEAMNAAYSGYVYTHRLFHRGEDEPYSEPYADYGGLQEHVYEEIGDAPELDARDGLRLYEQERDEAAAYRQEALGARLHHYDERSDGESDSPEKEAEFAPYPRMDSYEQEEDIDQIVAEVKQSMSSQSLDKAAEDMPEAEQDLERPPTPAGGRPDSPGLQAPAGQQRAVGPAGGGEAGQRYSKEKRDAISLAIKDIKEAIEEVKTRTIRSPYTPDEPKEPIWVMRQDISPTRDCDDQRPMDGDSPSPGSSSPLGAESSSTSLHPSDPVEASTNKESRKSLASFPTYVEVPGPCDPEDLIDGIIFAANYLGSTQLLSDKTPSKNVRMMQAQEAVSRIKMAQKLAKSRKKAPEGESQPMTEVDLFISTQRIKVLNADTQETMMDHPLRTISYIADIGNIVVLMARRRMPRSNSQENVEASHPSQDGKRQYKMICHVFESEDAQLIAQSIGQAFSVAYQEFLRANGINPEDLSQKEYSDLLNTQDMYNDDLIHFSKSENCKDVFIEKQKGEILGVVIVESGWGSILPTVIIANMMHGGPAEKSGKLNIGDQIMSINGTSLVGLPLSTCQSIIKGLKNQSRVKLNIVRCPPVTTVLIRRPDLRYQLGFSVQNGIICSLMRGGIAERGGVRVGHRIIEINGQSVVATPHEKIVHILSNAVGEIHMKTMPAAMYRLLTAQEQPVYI

[12] = target: T4, Voltage-gated N-type calcium channel alpha-1B subunit/Amyloid beta A4 precursor protein-binding family A member 1; test: disruptors of Mint-PDZ/N-type channel peptide interaction – biochemical, HTRF, set 2, SAR follow-up (AID 434980); assay type: functional
Beta-galactosidase [13] = target: T5, Beta-galactosidase (Escherichia coli, UniProt Q8VNN2); test: beta-galactosidase enzyme inhibitors and activators, dose response, artefact control for CCR6 antagonist project, biochemical, E. coli enzyme, set 3 (AID 504712); assay type: functional
T5 sequence (Q8VNN2 whole entry): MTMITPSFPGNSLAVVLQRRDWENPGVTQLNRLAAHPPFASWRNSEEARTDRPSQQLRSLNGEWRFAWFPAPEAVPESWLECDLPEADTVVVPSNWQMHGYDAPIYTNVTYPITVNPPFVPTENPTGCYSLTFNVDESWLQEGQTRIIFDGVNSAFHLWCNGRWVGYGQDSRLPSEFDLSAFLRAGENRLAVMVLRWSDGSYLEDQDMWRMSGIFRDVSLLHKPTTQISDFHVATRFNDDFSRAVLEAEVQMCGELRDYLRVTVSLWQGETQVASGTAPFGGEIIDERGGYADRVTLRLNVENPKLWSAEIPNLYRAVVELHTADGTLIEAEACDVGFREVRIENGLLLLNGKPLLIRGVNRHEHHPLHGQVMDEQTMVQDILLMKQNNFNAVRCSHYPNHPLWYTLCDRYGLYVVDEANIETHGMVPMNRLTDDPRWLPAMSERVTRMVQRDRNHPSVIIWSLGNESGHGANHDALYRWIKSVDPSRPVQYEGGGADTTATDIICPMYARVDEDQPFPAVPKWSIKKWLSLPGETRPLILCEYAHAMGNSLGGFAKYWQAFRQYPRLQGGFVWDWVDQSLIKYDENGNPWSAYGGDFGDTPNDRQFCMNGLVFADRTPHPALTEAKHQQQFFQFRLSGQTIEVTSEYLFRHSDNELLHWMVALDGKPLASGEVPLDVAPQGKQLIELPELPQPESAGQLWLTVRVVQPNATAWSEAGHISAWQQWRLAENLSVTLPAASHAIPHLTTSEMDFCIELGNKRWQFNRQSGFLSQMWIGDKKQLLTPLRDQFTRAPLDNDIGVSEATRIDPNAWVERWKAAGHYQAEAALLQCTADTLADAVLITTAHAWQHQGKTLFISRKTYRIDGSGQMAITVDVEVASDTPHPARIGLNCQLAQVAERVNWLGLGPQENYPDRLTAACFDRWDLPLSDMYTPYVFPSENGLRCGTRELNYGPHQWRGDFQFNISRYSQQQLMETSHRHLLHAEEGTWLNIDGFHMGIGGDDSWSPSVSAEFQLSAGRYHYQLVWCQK

[14] = target: T6, Mannose-6-phosphate isomerase (Homo sapiens, UniProt P34949); test: human PMI inhibitors, high substrate, primary screen, biochemical, fluorescence intensity, high mannose 6-phosphate (AID 1220)
T6 sequence (P34949 whole entry): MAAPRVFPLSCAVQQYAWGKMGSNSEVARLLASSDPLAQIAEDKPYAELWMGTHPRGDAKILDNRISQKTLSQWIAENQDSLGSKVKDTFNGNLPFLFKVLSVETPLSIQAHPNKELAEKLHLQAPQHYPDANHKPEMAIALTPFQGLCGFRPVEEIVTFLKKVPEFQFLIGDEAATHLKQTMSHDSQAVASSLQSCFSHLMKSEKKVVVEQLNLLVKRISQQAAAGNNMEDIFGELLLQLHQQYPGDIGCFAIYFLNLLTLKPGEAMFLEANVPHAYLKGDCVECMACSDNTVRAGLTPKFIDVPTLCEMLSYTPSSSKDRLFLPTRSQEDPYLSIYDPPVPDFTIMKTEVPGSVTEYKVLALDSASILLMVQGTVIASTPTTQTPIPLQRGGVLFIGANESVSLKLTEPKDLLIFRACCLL

[15] = target: C-C chemokine receptor type 6 (Homo sapiens, UniProt P51684); test: CCR6 receptor antagonists, dose response, cell-based, luminescent beta-arrestin readout (AID 504728); assay type: functional
[16] = inhibitors of intracellular T. cruzi replication, confirmation, NIH3T3 host cells, beta-gal luminescence (AID 2044); assay type: functional, cell-based;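 note: intracellular parasites grown in NIH/3T3 mouse fibroblasts as host cells; luminescent beta-galactosidase reporter signal from transgenic T. cruzi replicating inside host cells; inhibitors lower the luminescence signal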
Beta-galactosidase [17] = target: T5, Beta-galactosidase; assay type: functional
Streptococcus = test: Group A Streptococcus viability loss, dose response, counter-screen for streptokinase expression inhibitor project, luminescence, BacTiterGlo (AID 1915); assay type: functional, organism-based;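 note: potency for reduction of bacterial viability or growth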
cells [18] = test: cells
[19] = test system: Streptococcus sp. 'group A'; test: growth inhibition of control SK(-) GAS strain, dose response, counter-screen for streptokinase expression inhibitor project, luminescence, kanamycin, BacTiterGlo, confirmation (AID 1900); assay type: functional, organism-based
Streptokinase A = target: T7, Streptokinase A (Streptococcus pyogenes serotype M1, UniProt P10520); test: S. pyogenes streptokinase expression inhibitors, potency, dose response, plasminogen activation absorbance, OD405 (AID 1914); assay type: functional, Streptococcus pyogenes M1 GAS;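 note: secreted streptokinase activity via plasminogen activation per viability signal from cell pellet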
T7 sequence (P10520 whole entry): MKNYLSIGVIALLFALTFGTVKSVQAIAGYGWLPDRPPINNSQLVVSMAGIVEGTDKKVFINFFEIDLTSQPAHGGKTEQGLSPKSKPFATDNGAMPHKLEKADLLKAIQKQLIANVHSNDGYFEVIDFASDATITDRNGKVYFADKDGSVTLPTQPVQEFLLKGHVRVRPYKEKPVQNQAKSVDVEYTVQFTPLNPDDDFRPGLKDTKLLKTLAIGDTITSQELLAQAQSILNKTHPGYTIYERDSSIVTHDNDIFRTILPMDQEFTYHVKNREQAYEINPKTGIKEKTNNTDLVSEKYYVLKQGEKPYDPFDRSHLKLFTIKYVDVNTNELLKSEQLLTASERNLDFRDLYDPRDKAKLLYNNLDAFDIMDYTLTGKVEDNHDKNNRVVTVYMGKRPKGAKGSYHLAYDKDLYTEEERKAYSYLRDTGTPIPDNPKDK

[20] = target: T8, Kappa-type opioid receptor (Homo sapiens, UniProt P41145); assay type: functional
cells [21] = assay type: functional, cell-based
[22] = target: E3 ubiquitin-protein ligase Mdm2 (Homo sapiens, UniProt Q00987); test: enhancers of MDM2-luciferase reporter signal, concentration-effect titration, project on inhibitors of MDM2 ubiquitin ligase, cellular assay, luminescent readout, 384-well plate format (AID 1394); assay type: functional;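 note: MDM2 E3 inhibitors raise luminescence so EC50 is for signal enhancement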
[23] = cytotoxicity toward NIH3T3 fibroblasts, dose response, counter-screen, cell-based, ATP luminescence, mouse fibroblasts (AID 2010); assay type: functional;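 note: cells exposed to compound for about 90 hours before reading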
cells [24] = assay type: functional, cell-based; remark: listed apart in the source
[25] = target: T8, Kappa-type opioid receptor; assay type: functional; remark: listed apart in the source

Sequence of G-protein coupled receptor 55 (Q9Y2T6 whole entry): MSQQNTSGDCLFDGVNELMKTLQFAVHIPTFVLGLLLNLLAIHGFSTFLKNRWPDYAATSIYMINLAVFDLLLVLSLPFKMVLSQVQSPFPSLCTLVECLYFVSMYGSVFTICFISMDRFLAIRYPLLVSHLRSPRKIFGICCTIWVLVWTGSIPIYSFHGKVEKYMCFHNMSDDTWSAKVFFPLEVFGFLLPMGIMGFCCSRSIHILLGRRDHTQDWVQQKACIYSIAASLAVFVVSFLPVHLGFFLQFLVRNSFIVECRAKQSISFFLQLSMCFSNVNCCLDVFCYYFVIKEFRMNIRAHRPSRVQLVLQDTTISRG

Cc1ccc(C)c(-c2ccc(=O)n(Cc3cccc(Br)c3)n2)c1
EC50 [1]: 3.48 µM (active) | EC50 (Protein RecA): 24.1 µM (active) | AC50 [2]: 4.88 µM (active)

CCOc1ccccc1OCCOc1ccccc1OC(C)C
EC50 [3]: 5.52 µM (active)

Cc1cc2c(cc1C)CSC(c1ccccc1O)SC2
Absolute IC50 (XBP1) (X-box-binding protein 1): < 10 µM

COc1ccc(C(CCNCc2ccc(F)cc2)c2ccc(F)cc2)cc1 (stereo not given)
EC50 [4]: 9.32 µM (active) | Absolute IC50 (XBP1) (X-box-binding protein 1): 10 µM | EC50 [5]: 7.18 µM (active)

COc1ccc(Cl)cc1Nc1nc(C)nc2c1oc1ccccc12
AC50 (Trypsin): 14.4 µM (active)

Cc1ccc(C)c(CN2C(=O)c3ccccc3[S+]([O-])c3ccc(C(=O)N4CCN(c5ccccn5)CC4)cc32)c1 (stereo not given)
EC50 [1]: 1.32 µM (active) | IC50 (Vero [6]): 2.51 µM (active) | CC50 (Vero [7]): 13.7 µM (active)

CS(=O)(=O)/C(C#N)=C/c1cccn1S(=O)(=O)c1ccc([N+](=O)[O-])cc1
IC50 [10]: > 50 µM (inactive)

O=C(C1CCCCN1Cc1ccc2ccccc2c1)N1CCN(c2ccc([N+](=O)[O-])cc2)CC1 (stereo not given)
IC50 [8]: 3.1 µM (active) | IC50 [9]: 4.1 µM (active)

N#C/C(=C\c1cccn1S(=O)(=O)c1ccccc1)S(=O)(=O)c1ccc(F)cc1
IC50 [10]: > 50 µM (inactive)

O=C(NCCCc1ccccc1)c1cc(-c2ccco2)nc2ccccc12
IC50 [11]: > 56.8 µM (inactive) | IC50 [12]: 44.7 µM (active)

C/C(=N\O)C(=O)C(CN1CCCCC1)CN1CCCCC1
IC50 (Beta-galactosidase [13]): > 66.6 µM (inactive) | IC50 [14]: > 50 µM (not active) | IC50 [15]: > 66.6 µM (inactive)

c1ccc(CSC2=NNC(c3ccccn3)S2)cc1 (stereo not given)
EC50 [16]: < 0.1 µM (active) | EC50 (Beta-galactosidase [17]): > 31.5 µM (inactive) | EC50 (Streptococcus): > 150 µM (not active) | EC50 (cells [18]): 1.73 µM (active) | EC50 [19]: 0.799 µM (active) | EC50 (Streptokinase A): > 150 µM (not active) | IC50 [20]: > 32 µM | EC50 (cells [21]): > 350 µM (not active) | EC50 [22]: 12.4 µM (not active) | EC50 [23]: > 60 µM (not active) | EC50 (cells [24]): 66.9 µM (active) | IC50 [25]: > 31.5 µM (inactive)
